The values below come from patent US10799507B2, “5-(7H-pyrrolo[2,3-d]pyrimidin-4-yl)-5-azaspiro[2.5]octane-8-carboxylic acid derivatives as novel JAK kinase inhibitors” (LEO Pharma A/S, priority 2017, dated 2020).

In one data set the target is JAK1 (Homo sapiens (Human), UniProt P23458). Put plainly: JAK kinase assay (HTRF), JAK1. The class given is biochemical. Particulars: catalytic domain, ATP at Km (7 μM). The method, boiled down: (§1)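 Catalytic-domain human JAK1 (GST-tagged, aa 850-1154) or His-tagged JAK2, baculovirus-expressed, phosphorylated 1 µM biotinylated TK peptide at Km ATP (JAK1 7 µM, 10 mM MgCl2, 50 nM SEB; JAK2 4 µM, 5 mM MgCl2) in pH 7.0 Hepes, 20-30 min RT. EDTA stop; overnight streptavidin-XL665/cryptate HTRF read.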
(TR-FRET usually uses a lanthanide donor and a delayed reading to cut background.)

In a further data set the target is JAK2 (Homo sapiens (Human), UniProt O60674). Put plainly: JAK kinase assay (HTRF), JAK2. The class given is biochemical. Particulars: catalytic domain, ATP at Km (4 μM). The procedure, abridged:
as §1

The target in the next data set is JAK3 (Homo sapiens (Human), UniProt P52333). Put plainly: JAK kinase assay (HTRF), JAK3. Particulars: catalytic domain, ATP at Km (2 μM). The class given is biochemical. The method, boiled down:
(§2)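 HTRF read-out of biotinylated TK peptide phosphorylation (1 μM) after a 20-30 min RT reaction in pH 7.0 Hepes buffer with 5 mM MgCl2 and 0.75% DMSO. JAK3 (His-tagged catalytic domain) used 2 μM ATP; TYK2 (GST-tagged, aa 871-1187) used 13 μM ATP plus 50 nM SEB, each at ATP Km.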

The next data set concerns the target TYK2 (Homo sapiens (Human), UniProt P29597). Put plainly: JAK kinase assay (HTRF), TYK2. The class given is biochemical. Particulars: catalytic domain, ATP at Km (13 μM). The procedure, abridged:
as §2

The nature of data set [1]: in vitro metabolic stability in human liver microsomes. The class given is in vitro ADME. Particulars: human, liver microsomes, 0.5 μM compound, 0.5 mg/mL microsomes, NADPH, 40 min, 37° C.; read-out: Human liver microsome Clapp (apparent intrinsic clearance). The method, boiled down:
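Compounds at 0.5 μM incubated in duplicate with human liver microsomes (0.5 mg/mL), phosphate buffer and NADPH at 37 °C for 40 min, sampled at 0, 5, 10, 20, 40 min into cold acetonitrile. LC-TOF-MS depletion gave elimination rate constant, from which apparent intrinsic clearance (Clapp) was calculated.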
(In general: Microsomes from liver hold many membrane-bound enzymes, among them those of drug oxidation.)

Chain of TYK2 (P29597 871-1187): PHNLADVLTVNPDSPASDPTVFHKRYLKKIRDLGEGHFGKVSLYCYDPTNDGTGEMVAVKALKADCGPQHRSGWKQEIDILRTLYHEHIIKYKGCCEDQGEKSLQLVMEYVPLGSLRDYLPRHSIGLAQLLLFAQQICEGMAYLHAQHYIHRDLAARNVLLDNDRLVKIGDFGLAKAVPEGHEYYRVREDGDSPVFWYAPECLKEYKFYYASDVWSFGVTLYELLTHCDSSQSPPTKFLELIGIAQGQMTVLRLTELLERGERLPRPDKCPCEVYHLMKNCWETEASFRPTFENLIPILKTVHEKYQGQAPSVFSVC
Chain of JAK2 (O60674 849-1124): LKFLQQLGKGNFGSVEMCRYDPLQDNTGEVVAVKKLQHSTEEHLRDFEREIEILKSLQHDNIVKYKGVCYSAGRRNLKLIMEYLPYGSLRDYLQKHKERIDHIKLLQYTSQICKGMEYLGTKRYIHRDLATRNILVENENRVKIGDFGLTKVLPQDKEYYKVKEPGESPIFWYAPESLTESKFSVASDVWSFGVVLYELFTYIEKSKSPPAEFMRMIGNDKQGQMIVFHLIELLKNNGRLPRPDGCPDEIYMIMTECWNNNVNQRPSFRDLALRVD
Chain of JAK3 (P52333 822-1111): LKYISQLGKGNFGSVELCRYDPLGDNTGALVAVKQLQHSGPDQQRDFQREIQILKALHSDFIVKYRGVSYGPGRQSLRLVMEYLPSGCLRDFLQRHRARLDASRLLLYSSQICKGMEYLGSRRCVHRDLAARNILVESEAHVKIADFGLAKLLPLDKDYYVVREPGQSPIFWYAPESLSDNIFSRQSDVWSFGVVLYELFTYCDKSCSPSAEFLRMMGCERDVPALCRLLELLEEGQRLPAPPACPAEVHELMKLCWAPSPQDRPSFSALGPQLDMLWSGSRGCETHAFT
Chain of JAK1 (P23458 850-1154): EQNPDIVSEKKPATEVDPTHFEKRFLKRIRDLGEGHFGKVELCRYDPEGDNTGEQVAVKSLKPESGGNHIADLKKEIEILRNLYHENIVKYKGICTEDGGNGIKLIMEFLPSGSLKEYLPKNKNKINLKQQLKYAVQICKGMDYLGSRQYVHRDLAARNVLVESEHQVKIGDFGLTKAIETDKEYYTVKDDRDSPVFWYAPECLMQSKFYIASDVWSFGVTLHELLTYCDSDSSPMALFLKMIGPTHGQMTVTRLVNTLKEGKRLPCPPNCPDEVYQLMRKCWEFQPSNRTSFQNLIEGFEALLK

`C[C@H](NC(=O)[C@H]1CCN(c2ncnc3[nH]ccc23)CC12CC2)[C@@H](O)c1ccc(F)cn1` [Example 41, (8S)-N-[(1S,2R)-2-(5-fluoro-2-pyridyl)-2-hydroxy-1-methyl-ethyl]-5-(7H-pyrrolo[2,3-d]pyrimidin-4-yl)-5-azaspiro[2.5]octane-8-carboxamide]: the EC50 at JAK1 worked out at 2.5 nM; at JAK2, 5 nM; on JAK3, 48.9 nM; on TYK2, 33.5 nM. In addition, in data set [1], the CLint scaled at 0.5 μM was found to be 166 mL/min/kg.
On to `O=C(OCC1CC(F)(F)C1)[C@H]1CCN(c2ncnc3[nH]ccc23)CC12CC2` [Example 154, (3,3-difluorocyclobutyl)methyl (8S)-5-(7H-pyrrolo[2,3-d]pyrimidin-4-yl)-5-azaspiro[2.5]octane-8-carboxylate], for which the EC50 on JAK1 was 0.9 nM; at JAK2, 1.7 nM; on JAK3, 5.1 nM; on TYK2, 15.7 nM. Moreover, the CLint scaled at 0.5 μM in data set [1] was determined as 149 mL/min/kg.
Regarding `O=C(NCc1ccccc1)C1CCN(c2ncnc3[nH]ccc23)CC12CC2` (centres unmarked) [Example 95, N-benzyl-5-(7H-pyrrolo[2,3-d]pyrimidin-4-yl)-5-azaspiro[2.5]octane-8-carboxamide], the EC50 at JAK1 was found to be 8.6 nM; on JAK2 it was 17.9 nM; on JAK3, 31.6 nM; at TYK2 it was 502 nM. The CLint scaled at 0.5 μM in data set [1] was found to be 135 mL/min/kg.
Take `C[C@H](NC(=O)[C@H]1CCN(c2ncnc3[nH]ccc23)CC12CC2)c1ccc(C#N)cn1` [Example 48, (8S)-N-[(1S)-1-(5-cyano-2-pyridyl)ethyl]-5-(7H-pyrrolo[2,3-d]pyrimidin-4-yl)-5-azaspiro[2.5]octane-8-carboxamide]: the EC50 is 3.2 nM on JAK1, 10.2 nM at JAK2, 40.3 nM on JAK3 and 128 nM at TYK2. In data set [1], the CLint scaled at 0.5 μM is 48 mL/min/kg.

Broadly, the EC50 is the concentration that produces a half-maximal response. A higher EC50 goes with weaker potency.
